Patent publication US20240252506A1 (Hoffmann-La Roche Inc., priority 2021, published 2024)
≈ marks a conversion by molar mass, not a printed value.

What follows are compounds tested on Escherichia coli ATCC 25922 (assay: Minimal Inhibitory Concentration (MIC) determination, broth microdilution (CLSI M07-A10)). Details: Escherichia coli, ATCC25922, read-out: Escherichia coli growth inhibition MIC, strain Escherichia coli ATCC 25922, 18-24 hours at 35±2° C., lowest concentration for complete growth inhibition (no visible growth).
Format: cell-based
Outline: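 MIC read visually as the lowest concentration with complete growth inhibition after 18-24 h at 35±2° C, ambient air. Method follows CLSI M07-A10 broth microdilution, two-fold compound series, inoculum standardized to 0.5 McFarland then diluted 1:200.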

| Compound | MIC [µg/mL] |
| --- | --- |
| C[C@H](N)Cn1nc2c(F)c3c(c(F)c2n1)CC(CN1CCC2(CC1)CN(c1cnc4c(n1)NC(=O)CO4)C(=O)O2)C3 [Example 123, 6-[8-[[2-[(2S)-2-aminopropyl]-4,8-difluoro-6,7-dihydro-5H-cyclopenta[f]benzotriazol-6-yl]methyl]-2-oxo-1-oxa-3,8-diazaspiro[4.5]decan-3-yl]-4H-pyrazino[2,3-b][1,4]oxazin-3-one; formic acid] | 0.125 (≈ 0.219 µM) |

Same assay, conditions: Escherichia coli, ATCC25922, strain Escherichia coli ATCC 25922, 18-24 hours at 35±2° C., lowest concentration for complete growth inhibition (no visible growth), read-out: Escherichia coli growth inhibition MIC

| MIC [µg/mL] | Compound |
| --- | --- |
| 0.125 (≈ 0.233 µM) | C[C@@H](N)c1nc2cc3c(c(F)c2o1)CC(CN1CCC2(CC1)CN(c1cnc4c(n1)NC(=O)CO4)C(=O)O2)C3 (stereo partly drawn) [Example 90, 6-[8-[[2-[(1R)-1-aminoethyl]-8-fluoro-6,7-dihydro-5H-cyclopenta[f][1,3]benzoxazol-6-yl]methyl]-2-oxo-1-oxa-,38-diazaspiro[4.5]decan-3-yl]-4H-pyrazino[2,3-b][1,4]oxazin-3-one] |
| 0.125 (≈ 0.233 µM) | CNCc1nc2cc(F)c3c(c2[nH]1)CC(CN1CCC2(CC1)CN(c1cnc4c(n1)NC(=O)CO4)C(=O)O2)C3 (stereo not shown) [Example 92, 6-[8-[[5-fluoro-2-(methylaminomethyl)-1,6,7,8-tetrahydrocyclopenta[e]benzimidazol-7-yl]methyl]-2-oxo-1-oxa-3,8-diazaspiro[4.5]decan-3-yl]-4H-pyrazino[2,3-b][1,4]oxazin-3-one] |
| 0.125 (≈ 0.233 µM) | CNCc1nc2c(F)c3c(cc2o1)CC(CN1CCC2(CC1)CN(c1cnc4c(n1)NC(=O)CO4)C(=O)O2)C3 (stereo not shown) [Example 93, 6-[8-[[4-fluoro-2-(methylaminomethyl)-6,7-dihydro-5H-cyclopenta[f][1,3]benzoxazol-6-yl]methyl]-2-oxo-1-oxa-3,8-diazaspiro[4.5]decan-3-yl]-4H-pyrazino[2,3-b][1,4]oxazin-3-one] |
| 0.125 (≈ 0.233 µM) | CNCc1nc2c3c(c(F)cc2o1)CC(CN1CCC2(CC1)CN(c1cnc4c(n1)NC(=O)CO4)C(=O)O2)C3 (stereo not shown) [Example 96, 6-[8-[[5-fluoro-2-(methylaminomethyl)-7,8-dihydro-6H-cyclopenta[e][1,3]benzoxazol-7-yl]methyl]-2-oxo-1-oxa-3,8-diazaspiro[4.5]decan-3-yl]-4H-pyrazino[2,3-b][1,4]oxazin-3-one] |
| 0.125 (≈ 0.233 µM) | C[C@H](N)c1nc2cc3c(c(F)c2o1)CC(CN1CCC2(CC1)CN(c1cnc4c(n1)NC(=O)CO4)C(=O)O2)C3 (stereo partly drawn) [Example 97, 6-[8-[[2-[(1S)-1-aminoethyl]-8-fluoro-6,7-dihydro-5H-cyclopenta[f][1,3]benzoxazol-6-yl]methyl]-2-oxo-1-oxa-3,8-diazaspiro[4.5]decan-3-yl]-4H-pyrazino[2,3-b][1,4]oxazin-3-one] |
| 0.25 (≈ 0.452 µM) | N[C@@H](CO)c1nc2cc3c(c(F)c2o1)CC(CN1CCC2(CC1)CN(c1cnc4c(n1)NC(=O)CO4)C(=O)O2)C3 (stereo partly drawn) [Example 143, 6-[8-[[2-[(1S)-1-Amino-2-hydroxy-ethyl]-8-fluoro-6,7-dihydro-5H-cyclopenta[f][1,3]benzoxazol-6-yl]methyl]-2-oxo-1-oxa-3,8-diazaspiro[4.5]decan-3-yl]-4H-pyrazino[2,3-b][1,4]oxazin-3-one] |

Second part, the compound before the results:

| Compound | MIC [µg/mL] |
| --- | --- |
| O=C1COc2ncc(N3CC4(CCN(CC5Cc6c(c(F)c7nn(C8CNC8)nc7c6F)C5)CC4)OC3=O)nc2N1.O=CO [Example 79, 6-[8-[[2-(azetidin-3-yl)-4,8-difluoro-6,7-dihydro-5H-cyclopenta[f]benzotriazol-6-yl]methyl]-2-oxo-1-oxa-3,8-diazaspiro[4.5]decan-3-yl]-4H-pyrazino[2,3-b][1,4]oxazin-3-one; formic acid] | 0.125 |
| O=C1COc2ncc(N3CC4(CCN(CC5Cc6c(c(F)c7c(nnn7C7CNC7)c6F)C5)CC4)OC3=O)nc2N1 (stereo not shown) [Example 80, 6-[8-[[1-(azetidin-3-yl)-4,8-difluoro-6,7-dihydro-5H-cyclopenta[f]benzotriazol-6-yl]methyl]-2-oxo-1-oxa-3,8-diazaspiro[4.5]decan-3-yl]-4H-pyrazino[2,3-b][1,4]oxazin-3-one] | 0.125 (≈ 0.22 µM) |
| NCCn1nc2cc(F)c3c(c2n1)CC(CN1CCC2(CC1)CN(c1cnc4c(n1)NC(=O)CO4)C(=O)O2)C3.O=C(O)C(F)(F)F (stereo not shown) [Example 83, 6-[8-[[2-(2-aminoethyl)-5-fluoro-7,8-dihydro-6H-cyclopenta[e]benzotriazol-7-yl]methyl]-2-oxo-1-oxa-3,8-diazaspiro[4.5]decan-3-yl]-4H-pyrazino[2,3-b][1,4]oxazin-3-one; 2,2,2-trifluoroacetic acid] | ≤ 0.06 |
| NCCn1nnc2cc(F)c3c(c21)CC(CN1CCC2(CC1)CN(c1cnc4c(n1)NC(=O)CO4)C(=O)O2)C3 (stereo not shown) [Example 84, 6-[8-[[1-(2-aminoethyl)-5-fluoro-7,8-dihydro-6H-cyclopenta[e]benzotriazol-7-yl]methyl]-2-keto-1-oxa-3,8-diazaspiro[4.5]decan-3-yl]-4H-pyrazino[2,3-b][1,4]oxazin-3-one] | 0.25 (≈ 0.465 µM) |
| NCCn1nnc2c3c(c(F)cc21)CC(CN1CCC2(CC1)CN(c1cnc4c(n1)NC(=O)CO4)C(=O)O2)C3 (stereo not shown) [Example 85, 6-[8-[[3-(2-aminoethyl)-5-fluoro-7,8-dihydro-6H-cyclopenta[e]benzotriazol-7-yl]methyl]-2-keto-1-oxa-3,8-diazaspiro[4.5]decan-3-yl]-4H-pyrazino[2,3-b][1,4]oxazin-3-one] | 0.25 (≈ 0.465 µM) |
| CNCCn1nc2c(F)c3c(c(F)c2n1)CC(CN1CCC2(CC1)CN(c1cnc4c(n1)NC(=O)CO4)C(=O)O2)C3.O=CO [Example 117, 6-[8-[[4,8-difluoro-2-[2-(methylamino)ethyl]-6,7-dihydro-5H-cyclopenta[f]benzotriazol-6-yl]methyl]-2-oxo-1-oxa-3,8-diazaspiro[4.5]decan-3-yl]-4H-pyrazino[2,3-b][1,4]oxazin-3-one; formic acid] | 0.25 |
| O=C1COc2ncc(N3CC4(CCN(CC5Cc6c(c(F)c7nn(CCNC8CC8)nc7c6F)C5)CC4)OC3=O)nc2N1 [Example 122] | 0.5 (≈ 0.839 µM) |
| C[C@H](N)Cn1cnc2c(F)c3c(c(F)c21)CC(CN1CCC2(CC1)CN(c1cnc4c(n1)NC(=O)CO4)C(=O)O2)C3 (stereo partly drawn) [Example 128, 6-[8-[[1-[(2S)-2-aminopropyl]-4,8-difluoro-6,7-dihydro-5H-cyclopenta[f]benzimidazol-6-yl]methyl]-2-oxo-1-oxa-3,8-diazaspiro[4.5]decan-3-yl]-4H-pyrazino[2,3-b][1,4]oxazin-3-one] | 0.25 (≈ 0.44 µM) |
| N[C@H]1COC[C@@H]1c1nc2cc3c(c(F)c2o1)CC(CN1CCC2(CC1)CN(c1cnc4c(n1)NC(=O)CO4)C(=O)O2)C3 (stereo partly drawn) [Example 138, 6-[8-[[2-[(3R,4R)-4-Aminotetrahydrofuran-3-yl]-8-fluoro-6,7-dihydro-5H-cyclopenta[f][1,3]benzoxazol-6-yl]methyl]-2-oxo-1-oxa-3,8-diazaspiro[4.5]decan-3-yl]-4H-pyrazino[2,3-b][1,4]oxazin-3-one] | 1 (≈ 1.73 µM) |

Same assay, conditions: strain Escherichia coli ATCC 25922, 18-24 hours at 35±2° C., lowest concentration for complete growth inhibition (no visible growth)

| Escherichia coli growth inhibition MIC [µg/mL] | Compound |
| --- | --- |
| 0.25 | O=C1COc2ncc(N3CC4(CCN(CC5Cc6cc7nc([C@H]8CCN8)oc7c(F)c6C5)CC4)OC3=O)nc2N1 (stereo partly drawn) [Example 140, 6-[8-[[2-[(2R)-azetidin-2-yl]-8-fluoro-6,7-dihydro-5H-cyclopenta[f][1,3]benzoxazol-6-yl]methyl]-2-oxo-1-oxa-3,8-diazaspiro[4.5]decan-3-yl]-4H-pyrazino[2,3-b][1,4]oxazin-3-one] |
| 0.25 | N[C@@H](CO)c1nc2cc3c(c(F)c2o1)CC(CN1CCC2(CC1)CN(c1cnc4c(n1)NC(=O)CO4)C(=O)O2)C3 (stereo partly drawn) [Example 144, 6-[8-[[2-[(1S)-1-Amino-2-hydroxy-ethyl]-8-fluoro-6,7-dihydro-5H-cyclopenta[f][1,3]benzoxazol-6-yl]methyl]-2-oxo-1-oxa-3,8-diazaspiro[4.5]decan-3-yl]-4H-pyrazino[2,3-b][1,4]oxazin-3-one] |

Second part, the compound before the results:

| Compound | Escherichia coli growth inhibition MIC [µg/mL] |
| --- | --- |
| O=C1COc2ncc(N3CC4(CCN(CC5Cc6cc7nc([C@@H]8CCN8)oc7c(F)c6C5)CC4)OC3=O)nc2N1 (stereo partly drawn) [Example 107, 6-[8-[[2-[(2S)-azetidin-2-yl]-8-fluoro-6,7-dihydro-5H-cyclopenta[f][1,3]benzoxazol-6-yl]methyl]-2-oxo-1-oxa-3,8-diazaspiro[4.5]decan-3-yl]-4H-pyrazino[2,3-b][1,4]oxazin-3-one] | 0.125 |
| C[C@H](N)Cn1cnc2c(F)c3c(c(F)c21)CC(CN1CCC2(CC1)CN(c1cnc4c(n1)NC(=O)CO4)C(=O)O2)C3 (stereo partly drawn) [Example 129, 6-[8-[[1-[(2S)-2-aminopropyl]-4,8-difluoro-6,7-dihydro-5H-cyclopenta[f]benzimidazol-6-yl]methyl]-2-oxo-1-oxa-3,8-diazaspiro[4.5]decan-3-yl]-4H-pyrazino[2,3-b][1,4]oxazin-3-one; formic acid] | 0.25 |
| N[C@H]1COC[C@@H]1c1nc2cc3c(c(F)c2o1)CC(CN1CCC2(CC1)CN(c1cnc4c(n1)NC(=O)CO4)C(=O)O2)C3 (stereo partly drawn) [Example 139, 6-[8-[[2-[(3R,4R)-4-Aminotetrahydrofuran-3-yl]-8-fluoro-6,7-dihydro-5H-cyclopenta[f][1,3]benzoxazol-6-yl]methyl]-2-oxo-1-oxa-3,8-diazaspiro[4.5]decan-3-yl]-4H-pyrazino[2,3-b][1,4]oxazin-3-one] | 1 |
| O=C1COc2ncc(N3CC4(CCN(CC5Cc6cc7nc([C@@H]8C[C@@H](O)CN8)oc7c(F)c6C5)CC4)OC3=O)nc2N1 (stereo partly drawn) [Example 142, 6-[8-[[8-Fluoro-2-[(2S,4R)-4-hydroxypyrrolidin-2-yl]-6,7-dihydro-5H-cyclopenta[f][1,3]benzoxazol-6-yl]methyl]-2-oxo-1-oxa-3,8-diazaspiro[4.5]decan-3-yl]-4H-pyrazino[2,3-b][1,4]oxazin-3-one] | 0.5 |
